As usually defined, the IC50 is the concentration that gives 50% inhibition. High values mean weaker potency in that assay, low ones greater potency in that assay.

Sequence of CDK12 (Q9NYV4 whole entry): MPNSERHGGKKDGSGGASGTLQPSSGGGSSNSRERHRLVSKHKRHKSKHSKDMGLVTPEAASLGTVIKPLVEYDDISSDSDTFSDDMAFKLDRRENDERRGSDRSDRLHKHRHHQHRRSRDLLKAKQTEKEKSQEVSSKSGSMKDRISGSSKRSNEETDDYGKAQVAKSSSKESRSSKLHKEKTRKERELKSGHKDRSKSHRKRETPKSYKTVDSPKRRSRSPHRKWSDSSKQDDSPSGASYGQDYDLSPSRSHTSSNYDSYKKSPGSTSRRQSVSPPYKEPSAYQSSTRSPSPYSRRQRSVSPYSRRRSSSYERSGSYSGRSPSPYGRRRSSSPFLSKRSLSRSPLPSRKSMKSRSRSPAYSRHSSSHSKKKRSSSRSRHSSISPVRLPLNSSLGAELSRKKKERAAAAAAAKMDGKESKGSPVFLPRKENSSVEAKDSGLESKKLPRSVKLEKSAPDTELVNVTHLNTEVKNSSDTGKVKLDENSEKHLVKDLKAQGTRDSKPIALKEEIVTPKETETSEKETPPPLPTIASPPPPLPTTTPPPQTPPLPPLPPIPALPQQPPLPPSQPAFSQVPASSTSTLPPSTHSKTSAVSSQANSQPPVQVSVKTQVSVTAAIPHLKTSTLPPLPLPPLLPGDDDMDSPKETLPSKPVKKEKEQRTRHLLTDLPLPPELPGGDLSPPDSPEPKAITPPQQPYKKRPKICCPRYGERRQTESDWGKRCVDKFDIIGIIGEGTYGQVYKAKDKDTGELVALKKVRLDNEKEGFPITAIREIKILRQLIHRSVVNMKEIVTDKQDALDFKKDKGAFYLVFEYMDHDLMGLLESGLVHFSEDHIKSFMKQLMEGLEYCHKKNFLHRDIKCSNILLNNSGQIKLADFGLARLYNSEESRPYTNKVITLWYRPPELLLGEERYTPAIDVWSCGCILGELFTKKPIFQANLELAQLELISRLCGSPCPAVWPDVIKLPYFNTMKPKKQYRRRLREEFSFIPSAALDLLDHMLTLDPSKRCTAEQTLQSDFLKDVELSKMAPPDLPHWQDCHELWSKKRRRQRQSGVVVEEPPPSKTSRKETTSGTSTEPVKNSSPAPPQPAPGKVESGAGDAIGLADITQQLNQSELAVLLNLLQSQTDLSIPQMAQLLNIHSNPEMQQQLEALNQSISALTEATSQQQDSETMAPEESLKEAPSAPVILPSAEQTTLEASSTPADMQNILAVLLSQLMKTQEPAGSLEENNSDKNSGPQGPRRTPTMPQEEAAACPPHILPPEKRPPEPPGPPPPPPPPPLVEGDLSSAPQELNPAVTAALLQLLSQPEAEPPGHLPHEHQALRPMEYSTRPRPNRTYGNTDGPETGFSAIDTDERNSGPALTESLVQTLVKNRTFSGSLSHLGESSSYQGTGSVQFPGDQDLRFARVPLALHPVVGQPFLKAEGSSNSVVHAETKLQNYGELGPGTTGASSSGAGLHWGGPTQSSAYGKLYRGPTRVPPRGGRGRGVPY
Sequence of CDK12 (O75909 whole entry partner): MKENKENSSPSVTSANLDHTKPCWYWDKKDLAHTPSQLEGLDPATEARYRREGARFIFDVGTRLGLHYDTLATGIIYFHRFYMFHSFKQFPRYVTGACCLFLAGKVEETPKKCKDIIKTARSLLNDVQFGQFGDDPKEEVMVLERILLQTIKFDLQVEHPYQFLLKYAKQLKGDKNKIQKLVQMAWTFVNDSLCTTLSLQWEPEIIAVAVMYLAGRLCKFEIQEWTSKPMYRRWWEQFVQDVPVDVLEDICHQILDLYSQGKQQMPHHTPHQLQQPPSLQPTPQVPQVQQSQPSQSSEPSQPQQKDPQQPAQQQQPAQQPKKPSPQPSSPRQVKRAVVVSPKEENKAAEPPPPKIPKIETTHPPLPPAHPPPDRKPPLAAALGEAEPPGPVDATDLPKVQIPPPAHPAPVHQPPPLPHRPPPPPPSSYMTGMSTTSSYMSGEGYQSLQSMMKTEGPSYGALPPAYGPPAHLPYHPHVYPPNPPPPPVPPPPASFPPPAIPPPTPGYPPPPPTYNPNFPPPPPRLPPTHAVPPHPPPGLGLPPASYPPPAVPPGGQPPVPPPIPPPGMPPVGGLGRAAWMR

The target in this assay is CDK12 (Homo sapiens (Human), UniProt Q9NYV4). Put plainly: Radiometric protein kinase assay (33PanQinase Activity Assay), Assay Condition B (thiol-free conditions). Format: biochemical. The following applies: thiol-free conditions (1 mM TCEP, glutathione removed). How it is done:
Example 2—Assay Condition B (Thiol-Free Conditions)
The IC50 profile of compounds was determined using one protein kinase in a customized, thiol free assay. […] Prior to testing, the 1×10^−03 M stock solutions in column 2 of the master plates were subjected to a serial, semi-logarithmic dilution using 100% DMSO as a solvent. […] Column 1 and 7 were filled with 100% DMSO as controls. Subsequently, 2×10 microliter from each well of the serial diluted copy plates were aliquoted with a 96 channel pipettor into two identical sets of “compound dilution plates”. All plates were barcoded for automated identification and tracking purposes. […] All compounds were stored as powder until being solubilized in DMSO. Solubilized compounds were stored as 1×10^−02 M/100% DMSO stock solutions. Prior to the assay process, 90 microliters of H2O were added to each well of a set of compound dilution plates. To minimize potential precipitation, the H2O was added to each plate only a few minutes before the transfer of the compound solutions into the assay plates. Each plate was shaken thoroughly, resulting in compound dilution plates with a final of 10% DMSO. For each assay, 5 microliters of solution from each well of the compound dilution plates/10% DMSO were transferred into the assay plate. The final volume of the assay was 50 μl. All compounds were tested at 10 final assay concentrations in the range from 1×10^−05 M to 3×10^−10 M, in singlicate. The final DMSO concentration in the reaction cocktails was 1% in all cases. A radiometric protein kinase assay (33PanQinase® Activity Assay) was used for measuring the kinase activity of the protein kinase. All kinase assays were performed in 96-well FlashPlates™ from PerkinElmer (Boston, Mass., USA) in a 50 microliter reaction volume. The reaction cocktail was pipetted in four steps in the following order: 20 microliter of assay buffer (standard buffer)·5 microliter of ATP solution (in H2O)·5 microliter of test compound (in 10% DMSO)·20 microliter enzyme/substrate mix. […] For all experiments labeled as “Thiol-free”, all glutathione was exchanged from protein preparations so as to be removed from the assay and final buffer conditions contained no thiol-containing reagents. This was done so there would be no interference with the key cysteines in the proteins of interest.
For data analysis, the median value of the counts in column 1 (n=8) of each assay plate was defined as “low control”. This value reflects unspecific binding of radioactivity to the plate in the absence of a protein kinase but in the presence of the substrate. The median value of the counts in column 7 of each assay plate (n=8) was taken as the “high control”, i.e. full activity in the absence of any inhibitor. The difference between high and low control was taken as 100% activity. As part of the data evaluation the low control value from a particular plate was subtracted from the high control value as well as from all 80 “compound values” of the corresponding plate. The residual activity (in %) for each well of a particular plate was calculated by using the following formula: Res. Activity (%)=100×[(cpm of compound−low control)/(high control−low control)]
The residual activities for each concentration and the compound IC50 values were calculated using Quattro Workflow V3.1.1 (Quattro Research GmbH, Munich, Germany; www.quattro-research.com). […] The fitting method used was a least-squares fit. As a parameter for assay quality, the Z′-factor (Zhang et al., J. Biomol. Screen. 2: 67-73, 1999) for the low and high controls of each assay plate (n=8) was used. ProQinase's criterion for repetition of an assay plate is a Z′-factor below 0.4 (Iversen et al., J. Biomol. Screen. 3: 247-252, 2006).
With `C=CC(=O)Nc1ccc(C(=O)N2CCC[C@@H](Nc3nccc(N4CCOCC4)n3)C2)cc1` [Example 36, (R)—N-(4-(3-((4-morpholinopyrimidin-2-yl)amino)piperidine-1-carbonyl)phenyl)acrylamide], the IC50 lay within 30000 to 100000 nM.

As to `CCC(=O)Nc1ccc(C(=O)N2CC[C@@H](Nc3ncc(Cl)c(OC4CC4)n3)C2)cc1` [Example 15, (R)—N-(4-(3-((5-chloro-4-cyclopropoxypyrimidin-2-yl)amino)pyrrolidine-1-carbonyl)phenyl)propionamide], the IC50 was in the range of 100 to 1000 nM.

On to `C=C(CC)C(=O)Nc1ccc(C(=O)N2CC[C@@H](Nc3ncc(Cl)cn3)C2)cc1` [Example 83, (R)—N-(4-(3-((5-chloropyrimidin-2-yl)amino)pyrrolidine-1-carbonyl)phenyl)-2-methylenebutanamide], for which the half-maximal inhibitory concentration (IC50) lay within 100 to 1000 nM.

Consider `C=CC(=O)Nc1ccc(C(=O)N2CC[C@@H](Nc3ncc(Cl)cn3)C2)cc1Cl` [Example 6, (R)-N-(2-chloro-4-(3-((5-chloropyrimidin-2-yl)amino)pyrrolidine-1-carbonyl)phenyl)acrylamide], for which the half-maximal inhibitory concentration (IC50) was less than 100 nM.

The compound `CCC(=O)Nc1ccc(C(=O)N2CCC[C@@H](Nc3nccc(-c4cn[nH]c4)n3)C2)cc1` [Example 41, (R)—N-(4-(3-((4-(1H-pyrazol-4-yl)pyrimidin-2-yl)amino)piperidine-1-carbonyl)phenyl)propionamide] registered an IC50 of 30000 to 100000 nM.

`CCC(=O)Nc1ccc(C(=O)N2CCC[C@@H](Nc3nccc(N4CCOCC4)n3)C2)cc1` [Example 42, (R)—N-(4-(3-((4-morpholinopyrimidin-2-yl)amino)piperidine-1-carbonyl)phenyl)propionamide] yielded an IC50 of 30000 to 100000 nM.

As for `C=CC(=O)Nc1ccc(C(=O)N2CC[C@@H](Nc3ncc(Cl)c(OC)n3)C2)cc1N1CCCCC1` [Example 74, (R)—N-(4-(3-((5-chloro-4-methoxypyrimidin-2-yl)amino)pyrrolidine-1-carbonyl)-2-(piperidin-1-yl)phenyl)acrylamide], the half-inhibitory concentration (IC50) was less than 100 nM.

Take `C=CC(=O)Nc1ccc(C(=O)N2CC[C@@H](Nc3cnc(C)cn3)C2)cc1` [Example 61, (R)—N-(4-(3-((5-methylpyrazin-2-yl)amino)pyrrolidine-1-carbonyl)phenyl)acrylamide]: the IC50 was in the range of 1000 to 10000 nM.

The compound `C=CC(=O)Nc1ccc(C(=O)N2CC[C@@H](Nc3ncc(Cl)c(OC)n3)C2)cc1N1CCOCC1` [Example 68, (R)—N-(4-(3-((5-chloro-4-methoxypyrimidin-2-yl)amino)pyrrolidine-1-carbonyl)-2-morpholinophenyl)acrylamide] displayed an IC50 of less than 100 nM.

`C=CC(=O)Nc1ccc(C(=O)N2CC[C@@H](Nc3ncc(Cl)c(OC)n3)C2)cc1Cl` [Example 5, (R)-N-(2-chloro-4-(3-((5-chloro-4-methoxypyrimidin-2-yl)amino)pyrrolidine-1-carbonyl)phenyl)acrylamide] returned an IC50 of less than 100 nM.

Compound `C=CC(=O)Nc1ccc(C(=O)N2CC[C@@H](Nc3ncc(Cl)c(C)n3)C2)cc1C` [Example 80, (R)—N-(4-(3-((5-chloro-4-methylpyrimidin-2-yl)amino)pyrrolidine-1-carbonyl)-2-methylphenyl)acrylamide] displayed an IC50 of 100 to 1000 nM.

`C=CC(=O)N1CCOc2cc(C(=O)N3CC[C@@H](Nc4ncc(Cl)c(OC)n4)C3)ccc21` [Example 63, (R)-1-(7-(3-((5-chloro-4-methoxypyrimidin-2-yl)amino)pyrrolidine-1-carbonyl)-2H-benzo[b][1,4]oxazin-4(3H)-yl)prop-2-en-1-one] displayed an IC50 of 100 to 1000 nM.

`C=CC(=O)Nc1ccc(C(=O)N2CC[C@@H](Nc3ncc(Cl)cn3)C2)cc1-c1cnn(C)c1` [Example 12, (R)—N-(4-(3-((5-chloropyrimidin-2-yl)amino)pyrrolidine-1-carbonyl)-2-(1-methyl-1H-pyrazol-4-yl)phenyl)acrylamide] gave a half-maximal inhibitory concentration (IC50) of 100 to 1000 nM.

(Values after patent publication US10894788B2, “Inhibitors of cyclin-dependent kinases” (Kinnate Biopharma Inc., priority 2018, dated 2021).)
